Test results: patent US20090143279A1 (priority 2007, published 2009)
Read-outs that look alike come from different tables or passages of the source.

Experiments:
[1] = system: mitochondrial membrane potential; type: cell-based, mouse
reactive oxygen species = type: cell-based, mouse; settings: for ROS levels: primary screen, in words
OXPHOS gene expression = type: cell-based, mouse; settings: for OXPHOS expression: primary screen, in words
nuOXPHOS transcripts = type: cell-based, mouse
mtOXPHOS transcripts = type: cell-based, mouse
cytochrome c = type: cell-based, mouse
Atp5a1 = test: Quantitative PCR of Atp5a1 (nuOXPHOS) expression; type: cell-based, mouse; settings: for increase of Atp5a1 expression: compound alone, FIG. 6d
Procedure: (§1) (a) Compounds indicated in FIG. 4 were retested at 20 nM, 200 nM, 2 μM and 20 μM. Gene expression levels are represented as a row-normalized heat map, with negative controls (DMSO treatment) and positive controls (PGC-1α treatment) shown. Dose-response curves for ROS levels and viability are also provided, where the y-axis is the composite Z-score. Shaded area indicates the noise envelope (P<0.05). Data shown are the results of four biological replicates per concentration. […] (c) Quantitative PCR measurement of Ppargc1a gene expression, in response to either DMSO alone (Con), 5 μM deoxysappanone B (deo) or 1 μM mebendazole (meb). (d) Quantitative PCR measurement of the nuclear OXPHOS gene Atp5a1. Cells were either treated with compound alone (black bars) or in combination with […] of the ERRa inverse agonist XCT790 (gray bars). (e) Quantitative PCR measurement of Sod2, which encodes the ROS scavenger MnSOD, as in (d). Means and s.d. of expression data are the result of four biological replicates.
(§2) FIG. 8 show measurements of the coupling between nuclear and mitochondrial OXPHOS gene expression. (a) A two-dimensional plot of the composite Z-scores for nuOXPHOS and mtOXPHOS expression is shown. (b) Row-normalized heat map displaying the top 15 compounds in each quadrant (I-IV). Heat map of nuOXPHOS and mtOXPHOS expression is shown along with ATP levels. (c) Real-time PCR validation of select compounds at the indicated doses, using Atp5a1 (nuOXPHOS) and mt-Co1 (mtOXPHOS) normalized to Hprt1 (internal control). Values indicate average fold change from mock-treated (DMSO) wells ±s.d. in four biological replicates.
(§3) Gene expression. […]. The cDNA was then used for real-time PCR quantification of products for mouse Atp5a1 (Mm00431960_ml), Sod2 (MnSOD; Mm01313000_m1) and Ppargc1a (Mm00447183_m1), with Hprt1 (Mm03024075_m1) serving as an internal control, using TaqMan gene-expression assays (Applied Biosystems).

mt-Co1 = test: Real-time PCR of mt-Co1 (mtOXPHOS) expression; type: cell-based, mouse; settings: 1 μM, FIG. 8c
Excerpt: as §2, §3

[2] = system: cellular dehydrogenase activity
Sod2 = test: Quantitative PCR of Sod2 (MnSOD) expression; type: cell-based, mouse; settings: in combination with compound, FIG. 6e
Procedure: as §1, §3

microtubules = test: Tubulin immunofluorescence; type: cell-based, mouse; settings: C2C12 myotubes, 48 hours, 10 nM to 10 μM, FIG. 7
Procedure: Tubulin immunofluorescence. […] Cells were washed once in 50 μl PBSTB2 (PBS with 0.1% (vol/vol) Tween-20 and 2% (wt/vol) BSA) and blocked in PBSTB2 for 1 h at room temperature or overnight at 4° C. Cells were incubated with an anti-α-tubulin (Sigma-Aldrich) antibody, 1:1,000 in PBSTB2, for 1 h at room temperature, and then washed three times with PBSTB2. […] Cells were visualized using an automated microscope (IX-Micro, Molecular Devices).

Ppargc1a = test: Quantitative PCR of Ppargc1a expression; type: cell-based, mouse; settings: 5 μM deoxysappanone B or 1 μM mebendazole, FIG. 6c
Procedure: as §1, §3

[3] = composite Z-score vs DMSO, Conc 14.22 μM
[4] = composite Z-score vs DMSO, Conc 20 μM
[5] = normalized composite Z-score vs mock-treated (DMSO) wells, Conc 20 μM
[6] = Table 3, differentiated C2C12 myotubes, 48 h treatment, composite Z-score vs DMSO
[7] = Table 6, C2C12 myotubes, 48 h, composite Z-score
[8] = retest at 20 nM to 20 μM, FIG. 6a
[9] = Table 7, C2C12 myotubes, 48 h, composite Z-score
[10] = 13.54 μM, composite Z-score vs DMSO
[11] = 20 μM, composite Z-score vs DMSO

Chain of cytochrome c (P62897 whole entry): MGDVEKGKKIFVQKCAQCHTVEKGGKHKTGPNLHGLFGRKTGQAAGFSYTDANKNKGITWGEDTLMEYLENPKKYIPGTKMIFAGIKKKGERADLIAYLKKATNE

Compound: C[C@@H]1C[C@@H]([C@H](O)CC2CC(=O)NC(=O)C2)C(=O)[C@@H](C)C1 [Cycloheximide, reference compound]
- ΔΨm [1, 3]: 2.318
- ΔΨm [1, 4]: 2.759
- ROS (reactive oxygen species; [3]): −3.415
- ROS (reactive oxygen species; [4]): −2.628
- GE-HTS (OXPHOS gene expression; [3]): −0.504
- GE-HTS (OXPHOS gene expression; [4]): −1.482
- nucOX (nuOXPHOS transcripts; [3]): 1.354
- nucOX (nuOXPHOS transcripts; [4]): 0.688
- nuOXPHOS expression (nuOXPHOS transcripts; screen, relative to mtOXPHOS, in words): preferentially increase
- mitoOX (mtOXPHOS transcripts; [3]): −4.179
- mitoOX (mtOXPHOS transcripts; [4]): −5.637
- cyt c (cytochrome c; [3]): −1.378
- cyt c (cytochrome c; [4]): −2.123
- nuOXPHOS elevated (Atp5a1; 1 μM, real-time PCR, FIG. 8c): 1.3 fold
- mtOXPHOS decreased (mt-Co1): 2.4 fold
- Viability (C2C12 myotubes; [3]): −2.540
- Viability (C2C12 myotubes; [4]): −2.804
- MTT [2, 3]: −3.550
- MTT [2, 4]: −3.499

Compound: COc1cc(/C=C(\C#N)C(=O)Nc2nnc(C(F)(F)F)s2)ccc1OCc1ccc(C(F)(F)F)cc1C(F)(F)F [XCT790]
- effect of XCT790 on compound-induced Atp5a1 increase (Atp5a1; in combination with mebendazole or deoxysappanone B, 5 mM XCT790, FIG. 6d): completely inhibited
- effect of XCT790 on compound-induced MnSOD increase (Sod2): suppressible

Compound: COc1ccc2c(c1)OCC(Cc1ccc(O)c(OC)c1)C2=O (stereo not drawn) [deoxysappanone b 7,3′-dimethyl ether, reference compound]
- ΔΨm [1, 5]: −0.637
- ROS Zscore (reactive oxygen species; [6]): −1.712
- ROS Zscore (reactive oxygen species; [7]): −1.712
- ROS (reactive oxygen species; [5]): −1.712
- dose at which ROS levels decreased (reactive oxygen species; [8]): 2 µM
- GEHTS_Zscore (OXPHOS gene expression; [6]): 2.577
- GEHTS_Zscore (OXPHOS gene expression; [7]): 2.577
- GE-HTS (OXPHOS gene expression; [5]): 2.118
- dose at which OXPHOS expression increased (OXPHOS gene expression; [8]): 2 µM
- nucOXPHOS Z (nuOXPHOS transcripts; [9]): 2.25
- nucOX (nuOXPHOS transcripts; [5]): 2.250
- mito-OXPHOS Z (mtOXPHOS transcripts; [9]): 1.38
- mitoOX (mtOXPHOS transcripts; [5]): 1.383
- cyt c (cytochrome c; [5]): −0.951
- potency required for microtubule disruption (microtubules): the same as that required to affect OXPHOS expression and ROS level
- expression of Ppargc1α (Ppargc1a): approximately threefold
- increase of Atp5a1 expression (Atp5a1): 20%
- Viability (C2C12 myotubes; [5]): −1.120
- MTT [2, 5]: −2.870

Compound: COC(=O)Nc1nc2ccc(C(=O)c3ccccc3)cc2[nH]1 [mebendazole, methyl[5-benzoyl-benzimidazol-2-carbamate], reference compound]
- ΔΨm [1, 10]: −0.054
- ΔΨm [1, 11]: −0.434
- ROS (reactive oxygen species; [10]): −0.791
- ROS (reactive oxygen species; [11]): −1.003
- ROS Zscore (reactive oxygen species; [6]): −1.003
- ROS levels (reactive oxygen species): suppressing ROS levels
- dose at which ROS levels decreased (reactive oxygen species; [8]): 2 µM
- GE-HTS (OXPHOS gene expression; [10]): 0.013
- GE-HTS (OXPHOS gene expression; [11]): 1.160
- GEHTS_Zscore (OXPHOS gene expression; [6]): 2.846
- OXPHOS expression (OXPHOS gene expression): boost OXPHOS expression
- dose at which OXPHOS expression increased (OXPHOS gene expression; [8]): 2 µM
- nucOX (nuOXPHOS transcripts; [10]): −0.200
- nucOX (nuOXPHOS transcripts; [11]): 1.212
- mitoOX (mtOXPHOS transcripts; [10]): 0.398
- mitoOX (mtOXPHOS transcripts; [11]): 0.824
- cyt c (cytochrome c; [10]): −0.685
- cyt c (cytochrome c; [11]): −1.473
- expression of Ppargc1α (Ppargc1a): approximately threefold
- increase of Atp5a1 expression (Atp5a1): 20%
- Viability (C2C12 myotubes; [10]): 0.064
- Viability (C2C12 myotubes; [11]): 0.512
- MTT [2, 10]: −2.797
- MTT [2, 11]: −2.060

Compound: CC(=O)O[C@H]1C(=O)[C@@]2(C)[C@H]([C@H](OC(=O)c3ccccc3)[C@]3(O)C[C@H](OC(=O)[C@H](O)[C@@H](NC(=O)c4ccccc4)c4ccccc4)C(C)=C1C3(C)C)[C@]1(OC(C)=O)CO[C@@H]1C[C@@H]2O [paclitaxel, reference compound]
- ROS Zscore (reactive oxygen species; [6]): −1.967
- ROS levels (reactive oxygen species): suppressing ROS levels
- dose showing effect on ROS level (reactive oxygen species; [8]): 20 nM
- GEHTS_Zscore (OXPHOS gene expression; [6]): 2.451
- OXPHOS expression (OXPHOS gene expression): boost OXPHOS expression
- dose showing effect on OXPHOS expression (OXPHOS gene expression; [8]): 20 nM
- potency required for microtubule disruption (microtubules): the same as that required to affect OXPHOS expression and ROS level

Compound: theaflavin monogallate
- ΔΨm [1, 5]: −0.581
- ROS (reactive oxygen species; [5]): −0.820
- GE-HTS (OXPHOS gene expression; [5]): −0.211
- nucOX (nuOXPHOS transcripts; [5]): −0.017
- mitoOX (mtOXPHOS transcripts; [5]): −0.612
- cyt c (cytochrome c; [5]): 1.252
- Viability (C2C12 myotubes; [5]): 0.945
- MTT [2, 5]: −0.786

Compound: totarol acetate
- ΔΨm [1, 4]: −0.556
- ROS (reactive oxygen species; [4]): 0.452
- GE-HTS (OXPHOS gene expression; [4]): 0.574
- nucOX (nuOXPHOS transcripts; [4]): 0.830
- mitoOX (mtOXPHOS transcripts; [4]): −0.125
- cyt c (cytochrome c; [4]): 1.207
- Viability (C2C12 myotubes; [4]): −0.273
- MTT [2, 4]: 0.730
